Tests used:
[1] = test system: Human carcinoma of the colon cell strain HCT-116; assay: Tertiary culture using test human cancer, killed cells by MTT method; assay type: cell-based; conditions: incubated 3 days
Procedure: Tertiary cultures were carried out using a human carcinoma of the colon tissue in stage 2b. The tertiary cultures were carried out according to the reported method (Int.J.Cancer Res., 82, 607-612 (1991), Gan to Kagakuryoho, 18, 239-243 (1991), Gan to Kagakuryoho, 19, 743-748 (1992)). The extracted tissue of carninoma of the colon was cut into square pieces having a side of about 2 mm, and incubated in a RPMI- 1640 medium containing 10 % fetal calf serum under 5 % CO2 at 37 °C for 3 days. Existing anticancer agents or acetylgliotoxin were diluted and added, and further incubated for 3 days. Then, the rate of killed cells was determined by the MTT method. The tertiary cultures using the test human cancer were carried out as follows: Human carcinoma of the colon cell strain HCT-116 was transplanted into the subcutaneous tissue of a nude mouse (Balb nu/nu) to induce tumor. The cancer tissue was extracted from the tumor-induced portion, and cut into square pieces having a side of 2 mm. The evaluation of the existing anticancer agents and acetylyliotoxin was earried out according to the aforementioned method.

[2] = Body weight in the COLON-26 evaluation in vivo (Example 1); design: species or system CDFI mice; conditions: day 21, COLON-26 mice, control 24.7 g
Procedure: CDFI mice (female: 4 weeks old) were bought, and colon-26 subcultured in vivo in the subcutaneous tissue was taken out. The colon-26 was minced in a Petridish, and transplanted into the sulcutaneous tissue of CDFI mice in an amount of 10 mg/mouse by a trucker. The transplanted day was assigned day 0, and the size of the tumor and body weight were measured on day 7 and divided into groups by n=4. The size of tumor was calculated as tumor weight by the following formula. (Tumor Weight (mg) = Tumor Volume (mm)^3 =1/2 × Major Axis (mm) × Minor Axis (mm))^2 [formula]
Administration was carried out from day 7 according to the following schedule. Dose was 0.2 mL/mouse, and injected into abdominal cavity. Acetylgliotoxin was dissolved in dimethyl sulfoxide (DMSO) in a concentration of 100 mg/mL, and adjusted to an object concentration (0.5 mg/kg, 1 mg/kg, 10 mg/kg, 20 mg/kg) by 5% Tween 80 (saline solution). In the evaluation of […], 1 mg/kg, injection was carried out every day for 5 days, in the case of 10 mg/kg, injected twice on day 7 and day 8, and in the case of 20 mg/kg, injected once on day 7.

[3] = Body weight in the HCT-116 evaluation in vivo (Example 1); design: species or system Balb/c nu/nu mice; conditions: day 21, HCT-116 mice, control 17.5 g
Procedure: Balb/c nu/nu mice (female: 5 weeks old) were bought, and HCT- 116 subcultured in vivo in the subcutaneous tissue was taken out. The HCT-116 was minced in a Petridish, and transplanted into the sulcutaneous tissue of […] mice in an amount of 30 mg/mouse by a trucker. The transplanted day was assigned day 0, and the size of the tumor and body weight were measured on day 7 and divided into groups by n=2.
Acetylgliotoxin was dissolved in dimethyl sulfoxide (DMSO) in a concentration of 100 mg/mL, and adjusted to an object concentration (0.5 mg/kg, 1 mg/kg, 10 mg/kg, 20 mg/kg) by 5 % Tween 80 (saline solution). In the evaluation of 0.5, 1 mg/kg, injection was carried out every day for 5 days, in the case of 10 mg/kg, injected twice on day 7 and day8, and in the case of 20 mg/kg, injected once on day 7.

[4] = Solubility of the isolated active component; assay type: physicochemical
Procedure: After cultivation by the above method was finished, an equal amount (3 L) of acetone was added to the 3 L culture solution, and extraction was carried out at room temperature for 30 minutes. Acetone was removed from the acetone-containing cultuer solution by an evaporator, and solvent extraction with ethyl acetate was carried out by a separating funnel. The solvent extract was dehydrated by sodium sulfate, and then, evaporated by an evaporator to dryness under reduced poressure to obtain 470 mg of the extract. Subsequently, the extract was adsorbed on a silica gel column, washed with toluene, and active fractions were eluted by toluene/ethyl acetate (8:2). The eluate was concentrated by an evaporator under reduced pressure to obtain 42 mg. The crude matters were subjected to high speed liquid chromatography ("Capsel-Pak C18", Shiseido, solvent: water:acetonitrile = 72:28), and a pure active substance was obtained by isochromatic elution. […] Ultraviolet absorption spectra end 266 nm (water: acetonitrile = 60 : 40) Molecular weight: 368 Thin layer chromatography: Absorbent; HPTLC Kieselgel 60 F 254 (MERK) Developing solvent: hexane : ethyl acetate = 6 : 4 R f value; 0.233 High speed liquid chromatogaphy: Used apparatus; UV detector : Waters 996 (Waters) Pump: HITACHI L―6200 (Hitachi Ltd.) Column: Reversed phase high speed liquid chromatography column for analysis (CAPCELL PAK C18 UG120 5 µ m 4.6 mm ⌀ × 250 mm (Shiseido) Solvent for elution; 30-100 % acetonitrile (linear grudient 20 minutes) Flow rate; 0.8 mL/min Retention time; about 10.5 minutes • Chemical shift values (cf. Fig. 1) in ^1H nuclear magnetic resonance spectra • ^1H―NMR (CDCl3) δ :5.97―6.04 (3H, m), 5.57 (1H, d), 5.02 (1H, d), 4.31 (1H, dd), 4.19 (1H, dd), 3.74 (1H, d), 3.44 (1H, dd), 3.17 (3H, s), 2.96 (1H, d), 2.14 (3H, s) • FAB MASS : 369 (MH^+) • Chemical shift values (cf. Fig. 2) in ^13C nuclear magnetic resonance spectra (600 MH3, CDCL3)

## CC(=O)OC1C=CC=C2CC34SSC(CO)(C(=O)N3C21)N(C)C4=O (centres unmarked) [acetylgliotoxin]
[1]; conc. 6.25 ug/mL
  I. R. (%): 43%
[1]; conc. 12.5 ug/mL
  I. R. (%): 56%
[1]; conc. 25 ug/mL
  I. R. (%): 67%
[2]; 0.5 mg/kg×5 i.p.(d7-11)
  weight: 24.7 g
[2]; 1 mg/kg×5 i.p.(d7-11)
  weight: 24.9 g
[2]; 10 mg/kg×2 i.p.(d7, 8)
  weight: 24.1 g
[2]; 20 mg/kg×1 i.p.(d7)
  weight: 25.2 g
[3]; 0.5 mg/kg×5 i.p.(d7-11)
  weight: 17.1 g
[3]; 1 mg/kg×5 i.p.(d7-11)
  weight: 17.8 g
[3]; 10 mg/kg×2 i.p.(d7, 8)
  weight: 15.8 g
[3]; 20 mg/kg×1 i.p. (d7)
  weight: 15.9 g
[4]; in chloroform and dimethyl sulfoxide
  Solubility: Easily soluble
[4]; in ethyl acetate, acetonitrile, toluene, methanol and acetone
  Solubility: soluble
[4]; in water
  Solubility: slightly soluble

Reference: patent EP0926242A1, “GLIOTOXIN DERIVATIVES AND ANTICANCER AGENT COMPRISING THE SAME” (priority 1996, dated 1998)
